{"source": "paper PMC3530961", "about": "(Journal of Medicinal Chemistry, 2012)", "key": {"P. falciparum 3D7": {"system": "P. falciparum 3D7", "assay": "growth inhibition of P. falciparum, SYBR green assay", "type": "cell-based, Plasmodium falciparum"}, "intrinsic clearance": {"assay": "intrinsic clearance", "type": "in vitro ADME, mouse", "settings": "for microsomal stability (CLi): female CD1 mouse liver microsomes, 0.5 µM compound; for microsomal stability / in vitro DMPK properties, in words: hepatic microsomes"}, "[1]": {"assay": "plasma protein binding by equilibrium dialysis", "type": "in vitro ADME, mouse", "settings": "for plasma protein binding (% bound): female CD1 mouse plasma, equilibrium dialysis 5 h, 37 °C"}, "recombinant PfTMPK [2]": {"target": "T1, recombinant PfTMPK (Plasmodium falciparum, UniProt Q8I4S1)", "T1 sequence (Q8I4S1 1-210)": "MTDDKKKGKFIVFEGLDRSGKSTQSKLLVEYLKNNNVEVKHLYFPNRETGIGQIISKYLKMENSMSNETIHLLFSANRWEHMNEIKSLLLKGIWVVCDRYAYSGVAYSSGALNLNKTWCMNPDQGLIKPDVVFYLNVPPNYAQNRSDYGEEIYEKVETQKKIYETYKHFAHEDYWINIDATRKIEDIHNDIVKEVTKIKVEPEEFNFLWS", "assay": "PfTMPK inhibition, coupled assay with pyruvate kinase and lactate dehydrogenase", "type": "biochemical"}, "recombinant PfTMPK [3]": {"target": "T1, recombinant PfTMPK", "settings": "read-out: Km of PfTMPK for TMP; substrate constant; cited from earlier work"}}, "data": [{"molecule": "Cc1cn([C@@H]2C[C@H](O)[C@@H](CNC(=O)Nc3ccc(OCc4ccccc4Cl)cc3)O2)c(=O)[nH]c1=O", "note": "[Compound 84, N-(5′-Deoxy-α-thymidin-5′-yl)-N′-(4-(2-chlorobenzyloxy)phenyl)urea]", "values": [{"measurement": "activity against the parasite, in words", "setting": "P. falciparum 3D7", "result": "sub-micromolar activity"}, {"measurement": "microsomal stability (CLi)", "setting": "intrinsic clearance", "result": 6, "unit": "mL/min/g"}, {"measurement": "microsomal stability / in vitro DMPK properties, in words", "setting": "intrinsic clearance", "result": "rapid turnover"}, {"measurement": "plasma protein binding (% bound)", "setting": "[1]", "result": 94.1, "unit": "% bound"}]}, {"molecule": "Cc1cn([C@@H]2C[C@H](O)[C@@H](CNS(=O)(=O)c3ccc([N+](=O)[O-])cc3)O2)c(=O)[nH]c1=O", "note": "[Compound 9]", "values": [{"measurement": "inhibitory activity against PfTMPK, in words", "setting": "recombinant PfTMPK [2]", "result": "no or very low inhibitory activity"}]}, {"molecule": "Cc1cn([C@@H]2C[C@H](O)[C@@H](CNC(=O)c3ccc4ccccc4c3)O2)c(=O)[nH]c1=O", "note": "[Compound 11]", "values": [{"measurement": "inhibitory activity against PfTMPK, in words", "setting": "recombinant PfTMPK [2]", "result": "no or very low inhibitory activity"}]}, {"molecule": "Cc1cn([C@H]2C[C@H](O)[C@@H](CNS(=O)(=O)c3ccc([N+](=O)[O-])cc3)O2)c(=O)[nH]c1=O", "note": "[Compound 34]", "values": [{"measurement": "inhibitory activity against PfTMPK, in words", "setting": "recombinant PfTMPK [2]", "result": "no or very low inhibitory activity"}]}, {"molecule": "Cc1cn([C@H]2C[C@H](O)[C@@H](CNCc3ccc([N+](=O)[O-])cc3)O2)c(=O)[nH]c1=O", "note": "[Compound 38]", "values": [{"measurement": "inhibitory activity against PfTMPK, in words", "setting": "recombinant PfTMPK [2]", "result": "no or very low inhibitory activity"}]}, {"molecule": "Cc1cn([C@H]2C[C@H](O)[C@@H](CNC(=O)c3ccc([N+](=O)[O-])cc3)O2)c(=O)[nH]c1=O", "note": "[Compound 37]", "values": [{"measurement": "inhibitory activity against PfTMPK, in words", "setting": "recombinant PfTMPK [2]", "result": "no or very low inhibitory activity"}]}, {"molecule": "Cc1cn([C@@H]2C[C@H](O)[C@@H](CNS(=O)(=O)c3ccc4ccccc4c3)O2)c(=O)[nH]c1=O", "note": "[Compound 10]", "values": [{"measurement": "inhibitory activity against PfTMPK, in words", "setting": "recombinant PfTMPK [2]", "result": "no or very low inhibitory activity"}]}, {"molecule": "Cc1cn([C@@H]2C[C@H](O)[C@@H](CNCc3ccc([N+](=O)[O-])cc3)O2)c(=O)[nH]c1=O", "note": "[Compound 13]", "values": [{"measurement": "inhibitory activity against PfTMPK, in words", "setting": "recombinant PfTMPK [2]", "result": "no or very low inhibitory activity"}]}, {"molecule": "Cc1cn([C@H]2C[C@H](O)[C@@H](COP(=O)(O)O)O2)c(=O)[nH]c1=O", "note": "[TMP, thymidine monophosphate]", "values": [{"measurement": "Km", "setting": "recombinant PfTMPK [3]", "result": 11, "unit": "µM"}]}, {"molecule": "COc1ccc(NC(=O)NC[C@H]2O[C@H](n3cc(C)c(=O)[nH]c3=O)C[C@@H]2O)cc1", "note": "[Compound 26]", "values": [{"measurement": "increase in potency against the parasite compared to compound 17", "setting": "P. falciparum 3D7; ratio of EC50 values versus starting compound 17", "result": 10, "unit": "fold"}]}, {"molecule": "Cc1cn([C@@H]2C[C@H](O)[C@@H](CNC(=O)c3ccc([N+](=O)[O-])cc3)O2)c(=O)[nH]c1=O", "note": "[Compound 12]", "values": [{"measurement": "inhibitory activity against PfTMPK, in words", "setting": "recombinant PfTMPK [2]", "result": "no or very low inhibitory activity"}]}, {"molecule": "Cc1cn([C@H]2C[C@H](O)[C@@H](CNS(=O)(=O)c3ccc4ccccc4c3)O2)c(=O)[nH]c1=O", "note": "[Compound 35]", "values": [{"measurement": "inhibitory activity against PfTMPK, in words", "setting": "recombinant PfTMPK [2]", "result": "no or very low inhibitory activity"}]}, {"molecule": "Cc1cn([C@H]2C[C@H](O)[C@@H](CNC(=O)Nc3ccc(OCc4ccccc4Cl)cc3)O2)c(=O)[nH]c1=O", "note": "[Compound 89]", "values": [{"measurement": "activity against the parasite, in words", "setting": "P. falciparum 3D7", "result": "sub-micromolar activity"}, {"measurement": "drop in activity of β-derivative relative to α-derivative 84", "setting": "P. falciparum 3D7", "result": 20, "unit": "fold"}]}, {"molecule": "Cc1cn([C@@H]2C[C@H](O)[C@@H](CNC(=O)Nc3ccc(OCc4ccc(Cl)cc4)cc3)O2)c(=O)[nH]c1=O", "note": "[Compound 86, N-(5′-Deoxy-α-thymidin-5′-yl)-N′-(4-(4-chlorobenzyloxy)phenyl)urea]", "values": [{"measurement": "activity against the parasite, in words", "setting": "P. falciparum 3D7", "result": "sub-micromolar activity"}]}, {"molecule": "Cc1cn([C@@H]2C[C@H](O)[C@@H](CNC(=O)Nc3ccc(OCc4ccccc4)cc3)O2)c(=O)[nH]c1=O", "note": "[Compound 60]", "values": [{"measurement": "activity against the parasite, in words", "setting": "P. falciparum 3D7", "result": "sub-micromolar activity"}, {"measurement": "microsomal stability (CLi)", "setting": "intrinsic clearance", "result": 3, "unit": "mL/min/g"}, {"measurement": "microsomal stability / in vitro DMPK properties, in words", "setting": "intrinsic clearance", "result": "good in vitro DMPK properties"}, {"measurement": "plasma protein binding (% bound)", "setting": "[1]", "result": 81.2, "unit": "% bound"}]}, {"molecule": "Cc1cn([C@H]2C[C@H](O)[C@@H](CNC(=O)c3ccc4ccccc4c3)O2)c(=O)[nH]c1=O", "note": "[Compound 36]", "values": [{"measurement": "inhibitory activity against PfTMPK, in words", "setting": "recombinant PfTMPK [2]", "result": "no or very low inhibitory activity"}]}, {"molecule": "Cc1cn([C@@H]2C[C@H](O)[C@@H](CNC(=O)Nc3ccc(N4CCCCC4)cc3)O2)c(=O)[nH]c1=O", "note": "[Compound 63]", "values": [{"measurement": "activity against the parasite, in words", "setting": "P. falciparum 3D7", "result": "sub-micromolar activity"}, {"measurement": "microsomal stability (CLi)", "setting": "intrinsic clearance", "result": 0.5, "unit": "mL/min/g"}, {"measurement": "microsomal stability / in vitro DMPK properties, in words", "setting": "intrinsic clearance", "result": "good in vitro DMPK properties"}, {"measurement": "unbound fraction in plasma, in words", "setting": "[1]", "result": "particularly large unbound fraction"}, {"measurement": "plasma protein binding (% bound)", "setting": "[1]", "result": 52.3, "unit": "% bound"}]}, {"molecule": "COc1ccc(COc2ccc(NC(=O)NC[C@H]3O[C@H](n4cc(C)c(=O)[nH]c4=O)C[C@@H]3O)cc2)cc1", "note": "[Compound 87, N-(5′-Deoxy-α-thymidin-5′-yl)-N′-(4-(4-methyoxybenzyloxy)phenyl)urea]", "values": [{"measurement": "activity against the parasite, in words", "setting": "P. falciparum 3D7", "result": "sub-micromolar activity"}]}, {"molecule": "Cc1cn([C@@H]2C[C@H](O)[C@@H](CNC(=O)Nc3ccc(-c4ccccc4)cc3)O2)c(=O)[nH]c1=O", "note": "[Compound 57]", "values": [{"measurement": "activity against the parasite, in words", "setting": "P. falciparum 3D7", "result": "sub-micromolar activity"}, {"measurement": "microsomal stability (CLi)", "setting": "intrinsic clearance", "result": 1.9, "unit": "mL/min/g"}, {"measurement": "microsomal stability / in vitro DMPK properties, in words", "setting": "intrinsic clearance", "result": "good in vitro DMPK properties"}, {"measurement": "plasma protein binding (% bound)", "setting": "[1]", "result": 92.0, "unit": "% bound"}]}, {"molecule": "Cc1cn([C@@H]2C[C@H](O)[C@@H](CNC(=O)Nc3ccc(Oc4ccccc4)cc3)O2)c(=O)[nH]c1=O", "note": "[Compound 66]", "values": [{"measurement": "activity against the parasite, in words", "setting": "P. falciparum 3D7", "result": "sub-micromolar activity"}, {"measurement": "microsomal stability (CLi)", "setting": "intrinsic clearance", "result": 1.8, "unit": "mL/min/g"}, {"measurement": "microsomal stability / in vitro DMPK properties, in words", "setting": "intrinsic clearance", "result": "good in vitro DMPK properties"}, {"measurement": "plasma protein binding (% bound)", "setting": "[1]", "result": 90.5, "unit": "% bound"}]}, {"molecule": "Cc1cn([C@@H]2C[C@H](O)[C@@H](CNC(=O)Nc3ccc(OCc4cccc(Cl)c4)cc3)O2)c(=O)[nH]c1=O", "note": "[Compound 85, N-(5′-Deoxy-α-thymidin-5′-yl)-N′-(4-(3-chlorobenzyloxy)phenyl)urea]", "values": [{"measurement": "activity against the parasite, in words", "setting": "P. falciparum 3D7", "result": "sub-micromolar activity"}]}]}
